# Source: PMC9456491, “Targeting the Mitochondrial Protein VDAC1 as a Potential Therapeutic Strategy in ALS” (International Journal of Molecular Sciences, 2022)
# Assays:
# [1] = ref [32]; cited from earlier work
# Source text: In order to test whether a VDAC1-derived N-terminal peptide can rescue mutant SOD1 toxicity, we expressed two different SOD1 mutants (SOD1^G93A or SOD1^G37R) in SH-SY5Y neuronal cells. These expressed SOD1 mutant proteins decreased cell survival compared to control cells. […] It is important to note that in this peptide, the last six residues f ...
# [2] = system: SH-SY5Y neuronal cells expressing mutant SOD1^G93A or SOD1^G37R; assay: Rescue of mutant SOD1-induced cell death in transfected SH-SY5Y cells; assay type: cell-based; settings: 4.5 × 10^4 cells/well, transfected with SOD1^G93A or SOD1^G37R, peptide 20 µM, 5 h, 24 h post-transfection, triplicates, n = 3, means ± SEM
# Description: Figure 1 Identification of VDAC1 interacting sites in SOD1. (A) SH-SY5Y cells (4.5 × 10^4 cells/well in 24-well plates) were transfected with an empty plasmid or a plasmid encoding for mutant SOD1^G93A or SOD1^G37R. Then, 24 h post-transfection, the cells were incubated for 5 h with (10-20)N-Ter-Antp peptide (20 µM) and then analyzed for cell death. The results are from triplicates of different biological repeats (n = 3) and are presented as the means ± SEM. * p < 0.05. (B) Schematic presentation of peptide arrays and detection of VDAC1-interacting peptides. (C) Glass-bound peptide array consisting of 768 overlapping peptides derived from 19 VDAC1-interacting proteins were incubated for 4 h with purified VDAC1 (64 nM) and then blotted with anti-VDAC1 antibodies against an internal sequence (1:5000) or with antibodies against the VDAC1-N-terminus, followed by incubation with HRP-conjugated anti-mouse IgG and detection using a chemiluminescence kit. […]
# SH-SY5Y and NSC-34 cells were grown at 37 °C and with 5% CO2 in Dulbecco’s modified Eagle medium (DMEM) supplemented with 10% tetracycline-free fetal bovine serum (FBS), L-Glutamine (2 mM), and penicillin (100 U/mL)/streptomycin (0.1 mg/mL). […] According to the manufacturer’s protocol, cell viability was analyzed using the CellTiter 96 AQueous one-solution cell proliferation assay (Promega) and plate reader at 490 nm.
# [3] = system: VDAC1 interaction with SOD1-derived peptides (spots 1C16 and 1C17); assay: Inhibition of VDAC1 interaction with SOD1-derived peptides on peptide array; assay type: binding, rat; settings: VDAC1 64 nM pre-incubated 1 h with 160 nM SOD1 protein, then 4 h with array; for inhibition of VDAC1 interaction with 1C17 peptide: spot 1C17; for decrease of VDAC1 interaction with both SOD1-derived peptides 1C16 and 1C17: spots by Image J
# Description: Figure 2 VDAC1 interaction with SOD1-derived peptides is reduced by WT and mutant SOD1. VDAC1 (64 nM) was pre-incubated for 1 h without (A) or with 160 nM of SOD1^WT (B), SOD1^G93A (C), or SOD1^G85R (D), followed by incubation for 4 h with the peptide array and then blotted with anti-VDAC1 antibodies, as in Figure 1C. SOD1-derived sequences are circled. […] (G) Pull down with anti-SOD1 antibody was performed by incubating recombinant VDAC1 and SOD1 proteins (2 µg each) with increasing concentrations of SOD1-derived peptide (0, 5, 15, and 30 µM). Immunoblotting was used to determine the levels of SOD1^G93A and VDAC1 in the bound and unbound fraction of each immunoprecipitation experiment. […] (H) Quantification of immunoblotting bands with ImageJ software. Quantification analysis of the relative VDAC1 intensity was performed with one-way ANOVA. Bars represent mean ± SEM. TEXT PRINTED IN THE PICTURE: (F) SOD1-derived peptide: Kd= 4 μM
# Customized 768-peptide sequences derived from 19 VDAC1-interacting proteins produced by INTAVIS Peptide Services (GmbH & Co. KG, Tübingen, Germany) were arrayed on a glass slide. The interaction of purified VDAC1 with glass-bound peptide arrays (BGUN_SB-002) was assessed by slide washing with TBST buffer (150 mM NaCl, 50 mM Tris/HCl, pH 7.4, and 0.1% Tween-20), followed by overnight incubation with blocking buffer (Tris-buffered saline, pH 7.8, containing 2.5% low-fat milk, w/v) at 4 °C. Next, the peptide array glass slides were incubated with purified VDAC1 (64 nM) in 400 µL of protein-interacting buffer (20 mM HEPES, 100 mM KCl, pH,7.4, PBS) at room temperature for 4 h in a humidified chamber. Then, the peptide array glass slides were washed (three times, 10 min each) with TBST and incubated overnight at 4 °C with anti-VDAC1 antibody against an internal sequence (ab15895) or against the N-terminus (ab154856) (1:5000). The peptide array glass slides were washed with 0.1% Tween-20 in TBS buffer/Tris-buffered saline (150 mM NaCl, 50 mM Tris/HCl, pH 7.4 TBST), followed by incubation for 2 h at RT with HRP-conjugated anti-mouse or anti-rabbit (1:10,000) or anti-goat (1:20,000) IgG as a secondary antibody. Enhanced chemiluminescent substrate (Pierce Chemical, Rockford, IL, USA) was used to detect HRP. The signal was captured in the dark using FUSION-FX (Vilber Lourmat) software.
# The VDAC1 protein was purified from rat liver mitochondria, as previously described. Briefly, rat liver mitochondria (5 mg/mL) in 10 mM Tris-HCl, pH 7.2, were incubated with 2% LDAO on ice for 20 min, followed by centrifugation (30 min, 14,000× g), and the obtained supernatant was loaded onto a dry celite:hydroxyapatite (2:1) column. VDAC1 was eluted with a solution containing 2% LDAO, 10 mM Tris-HCl, pH 7.2, 50 mM NaCl, and 22 mM NaH2PO4. The VDAC1-containing fractions were dialyzed against 10 mM Tris-HCl, pH 7.2, and subjected to a second chromatography step on a carboxymethyl-cellulose (CMC) column from which VDAC1 was eluted with a solution containing 10 mM Tris-HCl, pH 7.2, 0.3% LDAO, and 500 mM NaCl. The VDAC1-containing fractions were collected and used for VDAC1 channel conductance and microscale thermophoresis (MST) assays.
# Recombinant SOD1^WT, SOD1^G93A, and SOD1^G85R were purified as previously described. Briefly, the proteins were expressed as 6His-tagged (N-term) soluble proteins in BL21 cells, and the expression of the recombinant proteins was induced by addition of 0.5 mM IPTG, following purification using a 5mL HisTrap FF column (GE Healthcare, Chicago, IL, USA). The peak fractions were dialyzed overnight at 4 °C against a storage buffer (50 mM Na^+/phosphate, pH 7.6, 0.1 M NaCl, and 10% glycerol), concentrated by ultrafiltration (10 kDa cutoff, Millipore, USA), centrifuged at 110,000× g at 4 °C for 1 h using ultracentrifuge (Sorvall M120 Discovery, Waltham, MA, USA), and stored at −20 °C until use. […]
Substance,cell death activity [1],rescue of mutant SOD1-induced toxicity (cell survival) [2],inhibition of VDAC1 interaction with 1C17 peptide [3],decrease of VDAC1 interaction with both SOD1-derived peptides 1C16 and 1C17 [3],inhibition of VDAC1 interaction with 1C16 peptide ([3]; spot 1C16)
"1-MAVPPTYADLGKSARDVFTK-20-RQIKIWFQNRRMKWKK [(10–20)-N-Ter-Antp, VDAC1-N-terminus-derived peptide]",lost its cell death activity,rescued mutant SOD1-induced toxicity increasing SH-SY5Y cell survival,,,
"SOD1^G85R: recombinant dismutase inactive SOD1 mutant, 6His-tagged (N-term)",,,at a similar level,decreased the VDAC1 interaction with both SOD1-derived peptides,
"SOD1^G93A: recombinant dismutase active SOD1 mutant, 6His-tagged (N-term)",,,at a similar level,decreased the VDAC1 interaction with both SOD1-derived peptides,prevented the interaction of VDAC1 with the 1C16 peptide better than SOD1^WT and SOD1^G85R
"SOD1^WT: recombinant wild type SOD1, 6His-tagged (N-term)",,,at a similar level,decreased the VDAC1 interaction with both SOD1-derived peptides,
